Measurements published in patent publication US20160374352A1, “BOTANICAL ANTIMICROBIAL COMPOSITIONS” (The Trustees of Columbia University in the City of, priority 2015, published 2016).

Legend:
[1] = test system: S. aureus; assay: Method B: surface disinfectant base solution diluted 1:20, 1 minute (Table 8); type: cell-based; conditions: stock solution in surface disinfectant base diluted 1:20, 1 minute (Method B)
[2] = test system: P. aeruginosa; assay: Example 9: phenoxyethanol, PCMX, pine oil compositions diluted 1:20, albumin, 15 seconds (Table 3); type: cell-based; conditions: PXE stock 10.0% w/w, 0.5% w/w in 1 to 20 dilution
Experimental: Phenoxyethanol, PCMX and pine oil were added to 50% isopropanol in the amounts described in table 3 below (water was added to bring the total weight % of the composition 100%). The compositions described by table 3 were prepared and diluted 1:20 with water and tested using the following method. P. aeruginosa was used as the test organism (10^8 cfu/ml). 0.1 ml culture was added to 0.1 ml of a 3.0% albumin solution, mixed for 5 seconds and left for 2 minutes at room temperature. 0.8 ml of test sample was added and the tube was vortexed for 15 seconds. Serial dilutions were made with Drug Neutralizing Fluid and aliquots were plated on Trypticase soy broth agar plates. The plates were incubated for 24-48 hours and colony counts were then determined.

[3] = oral rinses of WO/2014/092999; cited from earlier work

Row | Compound | synergistic activity with thymol and vanilla extract [3] | further results
1 | Cc1cc(O)cc(C)c1Cl [PCMX] |  | log reduction from control growth [1]: 0.5 log
2 | OCCOc1ccccc1 [PXE] |  | Log reduction from control [2]: 0.6 log
3 | [H]/N=C(\N/C(=N/[H])NCCCCCCNC(=N)NC(=N)Nc1ccc(Cl)cc1)Nc1ccc(Cl)cc1 [chlorhexidine] | did not show significant synergistic activity | 
4 | polyhexamethylene biguanide [PHMB] | synergistic activity | 
